Reference: paper PMC8245773, “Brevibacillin 2V, a Novel Antimicrobial Lipopeptide With an Exceptionally Low Hemolytic Activity” (Frontiers in Microbiology, 2021)
Like-named read-outs stand apart in the source and are kept apart here. *1 amine or outer side, *2 acyl side, *3 side chain or, on linkers, in order; H or OH if unused. Where a SMILES comes first, the peptide text is derived from it. [ ]: non-standard residue; d: D form. The star is where a group is joined. X2 = CC=C(N[*:1])C(=O)[*:2]; dOrn = NCCC[C@@H](N)C(=O)O; Valol = CC(C)[C@@H](CO)N*; X1 = CCC(C)C(O)C(=O)*

What was measured:
human erythrocytes = test: Hemolytic activity
Procedure: This assay was performed as per the method described in previous studies ([Ling et al., 2015]; [Li et al., 2018]). Briefly, erythrocytes were isolated from a healthy human volunteer donor (ordered from Sanquin, Netherlands^1) and washed with phosphate-buffered saline (PBS) three times. After that, peptides were added at final concentrations of 128, 64, 32, 16, 8, 4, 2, 1, and 0 mg/L in PBS containing 2% (v/v) erythrocytes. The cells were incubated at 37°C for 1 h and centrifuged for 5 min at 8,000 g. The supernatant was transferred to a 96-well plate, and the absorbance was measured at a wavelength of 450 nm with a Thermo Scientific Varioskan^TM LUX multimode microplate reader. The absorbance relative to the positive control, which was treated with 10% Triton X-100, was defined as the percentage of hemolysis. The 50% human blood cell hemolysis concentration (HC50) of peptides was calculated as described in previous studies ([Reed and Muench, 1938]).
(§1) GraphPad Prism 7.0 was used to fit the data of hemolytic assay and cytotoxicity assay in Figure 3. The experiments were conducted in triplicate, and data are presented as the mean value of triplicate experiments. Data Explorer Software was used to analyze the MALDI-TOF data; Thermo Scientific Xcalibur software was used to analyze the LC–MS/MS data. The statistical significance of the data was assessed using Duncan’s multiple-range test with the software SPSS Statistics 19.0. P-values less than 0.05 were considered to be statistically significant.

HepG2 cells = conditions: for HepG2 CC50: 24 h
Procedure: The cytotoxicity of brevibacillins was evaluated on HepG2 cells by using the XTT (Cell Proliferation Kit XTT, AppliChem) assay ([Roehm et al., 1991]). HepG2 cells [in Dulbecco’s modified Eagle’s medium (DMEM) supplemented with 10% fetal bovine serum] were seeded into 96-well plates and incubated at 37°C with 5% CO2. After 24 h, the medium was replaced with a fresh medium (DMEM with 2% FBS, 100 μl per well) containing different concentrations of brevibacillins ([Zhao et al., 2017]). After 24 h of incubation, the XTT reagent was added to the cultures according to the manufacturer’s instructions, and the plates were incubated at 37°C for 2 h with 5% CO2. Subsequently, the absorbance values were measured by using a Varioskan^TM LUX multimode microplate reader (Thermo Fisher Scientific) at 485 nm (reference, 690 nm). The 50% cell toxicity (CC50) of peptides was calculated as described in a previous study ([Reed and Muench, 1938]).
as §1

[1] = cited from earlier work
Procedure: For cytotoxicity assays, HepG2 cells were incubated in the presence of brevibacillin concentrations ranging from 2 to 64 mg/L. After 24 h of incubation, cell viability was determined using an XTT kit.

Compound | hemolytic activity at 128 mg/L (human erythrocytes) | HC50 (concentration that causes 50% hemolysis of human red blood cells) (human erythrocytes; 1 h) [mg/L] | CC50 (HepG2) relative to MIC values against bacterial pathogens (HepG2 cells) | cytotoxicity to HepG2 cells at 16 mg/L (HepG2 cells) | HepG2 CC50 (HepG2 cells) [mg/L] | CC50 [1] | hemolytic activity at 128 mg/L (human erythrocytes; 128 mg/L, human erythrocytes, 37°C, 1 h) | cytotoxicity to HepG2 cells at 32 mg/L (HepG2 cells)
CC=C(NC(=O)C(O)C(C)CC)C(=O)N[C@@H](CC(C)C)C(=O)N[C@H](CCCN)C(=O)N[C@H](C(=O)N[C@H](C(=O)N[C@H](C(=O)N[C@H](CCCCN)C(=O)N[C@H](C(=O)N[C@H](C(=O)N[C@@H](CCCCN)C(=O)N[C@H](Cc1ccc(O)cc1)C(=O)N[C@@H](CC(C)C)C(=O)N[C@H](CO)C(C)C)C(C)C)C(C)C)C(C)C)C(C)C)[C@@H](C)CC (stereo partly drawn) [brevibacillin V] (X1-[X2]L[dOrn]IVV[dK]VVK[dY]L-Valol) | completely lysed | 73.1 ± 1.4 | 2.5- to fivefold | all of the HepG2 cells were killed | 9.89 ± 0.67 |  |  | 
bogorol |  |  |  |  |  | below 8 mg/L |  | 
CC=C(NC(=O)C(O)C(C)CC)C(=O)N[C@@H](CC(C)C)C(=O)N[C@H](CCCN)C(=O)N[C@H](C(=O)N[C@H](C(=O)N[C@H](C(=O)N[C@H](CCCCN)C(=O)N[C@H](C(=O)N[C@H](C(=O)N[C@@H](CCCCN)C(=O)N[C@H](Cc1ccc(O)cc1)C(=O)N[C@@H](CC(C)C)C(=O)N[C@H](CO)C(C)C)C(C)C)C(C)C)C(C)C)C(C)C)C(C)C (stereo partly drawn) [brevibacillin 2V] (X1-[X2]L[dOrn]VVV[dK]VVK[dY]L-Valol) |  | > 128 | 23 fold |  | 45.49 ± 0.24 |  | No hemolytic activity | no cytotoxicity
